Data from patent US7833551B2, “Inhibition of biogenic sulfide production via biocide and metabolic inhibitor combination” (ConocoPhillips Company, priority 2004, dated 2010).

Test system: sulfate-reducing bacterial (SRB) consortium
Experiment: Inhibition of sulfate reduction and sulfide production in SRB cultures for one month (MIC and biocide/metabolic inhibitor combinations)
Type: cell-based, sulfate-reducing bacteria (Coleville SRB enrichment)
Details: 720 h; minimum concentration necessary to prevent sulfide production by SRB for 30 days after contact; compound alone; certain test conditions; read-out: minimum inhibitory concentration (MIC)
Description: The sulfate-reducing bacterial (SRB) consortium used in this study was enriched from produced water obtained from the Coleville oil field near Kindersely, Sadkatchewan, Canada. […] The SRB consortium was maintained by weekly transfer in sPGC medium, and incubated at 30° C. […] The sPGC contained the following components per 1 liter of distilled water: 7 g NaCl; 1.2 g MgCl26H2O; 0.5 g KH2PO4; 1 g NH4Cl; 4.5 g Na2SO4; 0.042 g CaCl22H2O; 0.03 g MgSO47H2O; 0.004 g FeSO47H2O; 0.28 g sodium citrate; 10 g 60% sodium lactate; 1 g yeast extract; and a trace amount of rezazurin.
The cultures used in this study were grown in 100 mL of modified Coleville synthetic brine medium (mCSB) in 160-ml serum bottles, with a headspace of 5% H2, 10% CO2 balance N2. […]
Sulfate was measured using the turbidimetric method described in: American Public Health Association, Standard Methods for the Examination of Water and Wastewater. […]
For each biocide and metabolic inhibitor tested, the minimum inhibitory concentration (MIC; the minimum amount of biocide required to inhibit sulfate reduction and sulfide production in the SRB culture for one month) was determined.

Compound: O=CCCCC=O [glutaraldehyde]
- MIC: 5 mM
